Experimental data published in US20080039515A1, “Arylpyrazoles And Methods Of Using Same For Control Of Insect Pests That Bore Into Trees” (The Texas A&M University System, priority 2004, published 2008).
Like-named read-outs stand apart in the source and are kept apart here.

What was measured:
[1] = tested on: Ips engravers beetles; assay type: in vivo
Protocol: (§1) Study Sites: Two 20-year-old, recently thinned loblolly pine plantations were selected in Texas. Trees in one plantation were injected for use in a bolt study (Trial 1). Trees in ½ acre section of the second plantation were injected as part of a single-tree protection study (Trial 2). A staging area also was set up in the second plantation where bolts from the first plantation were exposed to bark beetles and wood borers.
Population Monitoring: A clear panel of acetate (10 cm wide by 25 cm long) was attached to the center of each bolt after deployment of bolts or 2 m high on standing trees after deployment of pheromone baits to monitor arrival of bark beetles. The top surface of each panel was coated entirely with Stikem Special® trapping compound (Michel and Pelton, Emeryville, Calif.). The traps were left in place for two weeks.
(§2) After 1 (May 24), 3 (July 19) and 5 (September) months post-injection, 5 trees of each treatment were felled and two 1.5 m long bolts were removed from the 3 m and 8 m heights of the bole. Because southern pine beetle (SPB) populations were extremely low in east Texas during the study year, Ips engravers were used as alternative bark beetles for this study. The bolts were transported to a 20-year-old loblolly plantation that was recently thinned and contained fresh slash material. Each bolt was placed about 1 m apart on discarded, dry pine bolts to maximize surface area available for colonization as well as to discourage predation by ground and litter-inhabiting organisms. To facilitate timely bark beetle colonization, packets of bark beetle pheromones (racemic ipsdienol +lanerione combination, ipsenol or cis-verbenol; Phero Tech, Inc., Delta, BC, Canada) were attached separately to three 1 m stakes evenly spaced in the study area. Racemic ipsdienol and cis-verbenol were used with the second series of bolts deployed in July. The packets were removed after 2 weeks when signs of attacks (boring dust) were observed on most test bolts, signaling that naturally-produced pheromones were present.
(§3) Treatment Evaluation: Trial 1. The first and second series of bolts were retrieved 2.5 and 3 weeks, respectively, after deployment, after observing many cerambycid attacks on most of the bolts. In the laboratory, two 10×50 cm strips (total=1000 cm^2) of bark were removed from each bolt. Several measurements were made relating to construction of nuptial chambers and egg galleries and development of brood: • 1. Number of unsuccessful attacks—penetration to phloem, but no egg galleries. • 2. Number of successful attacks—construction of nuptial chamber and at least one egg gallery extending from it. • 3. Number and lengths of egg galleries with brood galleries radiating from them. • 4. Number and lengths of egg galleries without brood galleries. • 5. Cerambycid activity, estimated by overlaying a 100 cm^2 grid over a portion of each bark strip and counting the number of squares overlapping area where cerambycids had fed.
(§4) Treatment efficacy was determined by comparing Ips beetle attacks and egg gallery length and cerambycid feeding on treated and untreated bolts. The data were transformed by log10(x+1) to satisfy criteria for normality and homoscedasticity (Zar 1984) and analyzed by GLM and the Fishers Protected LSD test using the Statview statistical program.

[2] = tested on: cerambycid larvae; assay type: in vivo, cerambycids; settings: for reduction of cerambycid larval feeding damage: May
Protocol: as §1, §2, §3, §4

[3] = 1 month post-injection (May), bolt height 3 m
[4] = 1 month post-injection (May), bolt height 8 m
[5] = 3 months post-injection (July), bolt height 3 m
[6] = 3 months post-injection (July), bolt height 8 m
[7] = 3 months post-injection, bolt height 3 m
[8] = 3 months post-injection, bolt height 8 m
[9] = 5 months post-injection (Sept.), bolt height 3 m
[10] = 5 months post-injection (Sept.), bolt height 8 m

Structure (SMILES): N#Cc1nn(-c2c(Cl)cc(C(F)(F)F)cc2Cl)c(N)c1[S+]([O-])C(F)(F)F (stereo not drawn) [Fip, 5-amino-3-cyano-1-(2,6-dichloro-4-trifluoromethylphenyl)-4-trifluoromethylsulfinylpyrazole]
- Length of Egg Galleries Total [1, 3]: 135.0
- Length of Egg Galleries With Brood [1, 3]: 70.6 cm
- Length of Egg Galleries With Brood % of Total [1, 3]: 52.3%
- Length of Egg Galleries Without Brood [1, 3]: 64.4 cm
- Length of Egg Galleries Without Brood % of Total [1, 3]: 47.7%
- Mean # of Ips caught/trap [1, 3]: 4.0
- Number of Egg Galleries Total [1, 3]: 33.6
- Number of Egg Galleries With Brood % of Total [1, 3]: 29.8%
- Number of Egg Galleries With Brood No. [1, 3]: 10.0
- Number of Egg Galleries Without Brood % of Total [1, 3]: 70.2%
- Number of Egg Galleries Without Brood No. [1, 3]: 23.6
- Nuptial Chambers Total [1, 3]: 21.0
- Nuptial Chambers With Egg Galleries % of Total [1, 3]: 51.4%
- Nuptial Chambers With Egg Galleries No. [1, 3]: 10.8
- Nuptial Chambers Without Egg Galleries No. [1, 3]: 10.2
- Length of Egg Galleries Total [1, 4]: 332.8
- Length of Egg Galleries With Brood [1, 4]: 183.2 cm
- Length of Egg Galleries With Brood % of Total [1, 4]: 55.0%
- Length of Egg Galleries Without Brood [1, 4]: 149.6 cm
- Length of Egg Galleries Without Brood % of Total [1, 4]: 45.0%
- Mean # of Ips caught/trap [1, 4]: 3.6
- Number of Egg Galleries Total [1, 4]: 73.0
- Number of Egg Galleries With Brood % of Total [1, 4]: 36.7%
- Number of Egg Galleries With Brood No. [1, 4]: 26.8
- Number of Egg Galleries Without Brood % of Total [1, 4]: 63.3%
- Number of Egg Galleries Without Brood No. [1, 4]: 46.2
- Nuptial Chambers Total [1, 4]: 25.8
- Nuptial Chambers With Egg Galleries % of Total [1, 4]: 89.9%
- Nuptial Chambers With Egg Galleries No. [1, 4]: 23.2
- Nuptial Chambers Without Egg Galleries % of Total [1, 4]: 10.1%
- Nuptial Chambers Without Egg Galleries No. [1, 4]: 2.6
- Mean # of Ips caught/trap [1, 5]: 4.8
- Nuptial Chambers Total [1, 5]: 12.6
- Nuptial Chambers With Egg Galleries % of Total [1, 5]: 22.2%
- Nuptial Chambers With Egg Galleries No. [1, 5]: 2.8
- Nuptial Chambers Without Egg Galleries No. [1, 5]: 9.8
- Mean # of Ips caught/trap [1, 6]: 4.6
- Nuptial Chambers Total [1, 6]: 21.0
- Nuptial Chambers With Egg Galleries % of Total [1, 6]: 8.6%
- Nuptial Chambers With Egg Galleries No. [1, 6]: 1.8
- Nuptial Chambers Without Egg Galleries No. [1, 6]: 19.2
- Length of Egg Galleries Total [1, 7]: 19.4
- Length of Egg Galleries With Brood [1, 7]: 0.0 cm
- Length of Egg Galleries With Brood % of Total [1, 7]: 0.0%
- Length of Egg Galleries Without Brood [1, 7]: 19.4 cm
- Length of Egg Galleries Without Brood % of Total [1, 7]: 100.0%
- Number of Egg Galleries Total [1, 7]: 5.6
- Number of Egg Galleries With Brood % of Total [1, 7]: 0.0%
- Number of Egg Galleries With Brood No. [1, 7]: 0.0
- Number of Egg Galleries Without Brood % of Total [1, 7]: 100.0%
- Number of Egg Galleries Without Brood No. [1, 7]: 5.6
- Length of Egg Galleries Total [1, 8]: 9.2
- Length of Egg Galleries With Brood [1, 8]: 1.0 cm
- Length of Egg Galleries With Brood % of Total [1, 8]: 10.9%
- Length of Egg Galleries Without Brood [1, 8]: 8.2 cm
- Length of Egg Galleries Without Brood % of Total [1, 8]: 89.1%
- Number of Egg Galleries Total [1, 8]: 3.0
- Number of Egg Galleries With Brood % of Total [1, 8]: 6.7%
- Number of Egg Galleries With Brood No. [1, 8]: 0.2
- Number of Egg Galleries Without Brood % of Total [1, 8]: 93.3%
- Number of Egg Galleries Without Brood No. [1, 8]: 2.8
- Length of Egg Galleries Total [1, 9]: 5.8
- Length of Egg Galleries With Brood [1, 9]: 3.4 cm
- Length of Egg Galleries With Brood % of Total [1, 9]: 58.6%
- Length of Egg Galleries Without Brood [1, 9]: 2.4 cm
- Length of Egg Galleries Without Brood % of Total [1, 9]: 41.4%
- Mean # of Ips caught/trap [1, 9]: 1.2
- Number of Egg Galleries Total [1, 9]: 1.0
- Number of Egg Galleries With Brood % of Total [1, 9]: 40.0%
- Number of Egg Galleries With Brood No. [1, 9]: 0.4
- Number of Egg Galleries Without Brood % of Total [1, 9]: 60.0%
- Number of Egg Galleries Without Brood No. [1, 9]: 0.6
- Nuptial Chambers Total [1, 9]: 8.0
- Nuptial Chambers With Egg Galleries % of Total [1, 9]: 7.5%
- Nuptial Chambers With Egg Galleries No. [1, 9]: 0.6
- Nuptial Chambers Without Egg Galleries % of Total [1, 9]: 92.5%
- Nuptial Chambers Without Egg Galleries No. [1, 9]: 7.4
- Length of Egg Galleries Total [1, 10]: 15.2
- Length of Egg Galleries With Brood [1, 10]: 13.0 cm
- Length of Egg Galleries With Brood % of Total [1, 10]: 85.5%
- Length of Egg Galleries Without Brood [1, 10]: 2.2 cm
- Length of Egg Galleries Without Brood % of Total [1, 10]: 14.5%
- Mean # of Ips caught/trap [1, 10]: 0.8
- Number of Egg Galleries Total [1, 10]: 2.0
- Number of Egg Galleries With Brood % of Total [1, 10]: 60.0%
- Number of Egg Galleries With Brood No. [1, 10]: 1.2
- Number of Egg Galleries Without Brood % of Total [1, 10]: 40.0%
- Number of Egg Galleries Without Brood No. [1, 10]: 0.8
- Nuptial Chambers Total [1, 10]: 6.6
- Nuptial Chambers With Egg Galleries % of Total [1, 10]: 18.2%
- Nuptial Chambers With Egg Galleries No. [1, 10]: 1.2
- Nuptial Chambers Without Egg Galleries % of Total [1, 10]: 81.8%
- Nuptial Chambers Without Egg Galleries No. [1, 10]: 5.4
- phloem area fed upon by cerambycid larvae ([2]; July, bolts from 3 m): 2%
- reduction of cerambycid larval feeding damage ([2]; bolts from 3 m): 82%
- reduction of cerambycid larval feeding damage ([2]; bolts from 8 m): 55%
